# Results published in US10898592B2, “Compositions and methods for reducing the risk of post-imaging pancreatitis” (University Of Pittsburgh—Of The Commonwealth System Of …, priority 2015, dated 2021).
# Entries after “also recorded” stand apart in the source; their conditions may differ.
# Legend:
# AR42J cells = assay: Ca^2+ signals (Fluo-4AM) in AR42J cells; assay type: cell-based; details: U73122 5 μM; 2-APB 100 μM
# [1] = test system: calcineurin (NFAT-luciferase); assay: NFAT-luciferase activity assay (calcineurin activation), mouse primary acinar cells; assay type: cell-based; details: 2-APB 100 μM, 30 min pre-treatment; RC 9%
# Description: (§1) NFAT-luciferase activity assay. Acinar cells were infected with Ad-NFAT-luciferase following a previously described procedure^10,15,16. The construct includes a luciferase gene placed downstream of an IL-4 promoter which contains nine tandem NFAT binding sites^10. Acinar cells were incubated with the NFAT-driven luciferase adenovirus for 1.5 hr prior to stimulation. All of the stated inhibitors were added for 30 min prior to stimulation with RC. NFAT-luciferase was measured using the luciferase assay system. Briefly, cells were spun at 1,000 rpm for 5 min, washed with PBS, and lysed using reporter lysis 5× buffer (Promega #E397A, Madison, Wis.). Samples were vortexed and spun at 12,000 g for 2 min. Supernatant was plated, and luminescence was measured using a Synergy H1 plate reader (BioTek, Winooski, Vt.) and normalized to total protein.
# [2] = test system: calcineurin (NFAT-luciferase); assay: NFAT-luciferase activity assay, AR42J cells; assay type: cell-based; details: for effect on RC (6%)-induced NFAT-luciferase activity: pretreatment, FK506 24 μM, CsA 16 μM, U73122 5 μM, 2-APB 100 μM, BAPTA 64 μM
# Description: as §1
# NF-κB = assay: NF-κB-luciferase activity assay, AR42J cells; assay type: cell-based; details: for effect on RC-induced NF-κB-luciferase levels: U73122 5 μM, 2-APB 100 μM, BAPTA 64 μM
# Description: NF-κB-luciferase activity assay. AR42J cells were differentiated towards an acinar phenotype by administering dexamethasone (100 nM) for 48-72 hr^17. AR42J cells were infected with Ad-NF-κB luciferase 16 h prior to stimulation using a previously described method^12. Following a wash with DMEM/F12 medium, acinar cells were evenly distributed in a 48-well plate and incubated for 30 min at 37° C. They were incubated with RC at varying concentrations and times. NF-κB-luciferase was measured using a commercially available luciferase assay (Promega, Madison, Wis.). Briefly, cells were spun at 1,000 rpm for 5 min, washed with PBS, and lysed using reporter lysis 5× buffer (Promega, catalog no. E397A). Samples were vortexed and spun at 12,000×g for 2 min. The supernatant was plated, and luminescence was measured using a Synergy H1 plate reader (BioTek, Winooski, Vt.) and normalized to total […].
# primary acinar cells = assay: Cell necrosis assay (propidium iodide uptake), primary acinar cells; assay type: cell-based, mouse; details: for effect on RC (12%)-induced acinar cell injury (PI uptake): 6 hr incubation, U73122 5 μM, 2-APB 100 μM, BAPTA 64 μM, IKK-2 20 μM, FK506 24 μM, CsA 16 μM
# Description: Cell necrosis assay. Acinar cells were incubated in a 48-well plate with 50 μg/ml of propidium iodide (PI) for 30 min prior to addition of RC. Fluorescence was measured at 536 nm excitation and 617 nm emission wavelengths over time a time course of up to 6 hr. Fluorescence was measured after cell lysis with 0.5% Triton-X 100 was used to normalize the results relative to total DNA.
# [3] = high-affinity Ca^2+-sensing dye (Invitrogen); cited from earlier work
# pancreas = assay: Intra-ductal RC infusion (PEP model) in mice: histological severity, serum amylase; assay type: in vivo, mouse
# From the text: Intra-ductal RC infusion in mice. The procedure for retrograde infusion into the CBD and pancreatic duct has been described before^14. Briefly, Swiss Webster mice were anesthetized with isoflurane. A midline incision was made to reveal the abdominal cavity. The duodenum was flipped to reveal its distal side and held in place by ligatures. […] needle was inserted through the anti-mesenteric aspect of the duodenum to cannulate the CBD. A small bull dog clamp was applied to the distal CBD (near the duodenum) to prevent back flow of the infusate into the duodenal lumen and to hold the cannula in place. A larger bull dog clamp was applied to the proximal CBD (near the liver) to prevent infusion into the liver and thus to direct flow to the pancreatic duct. Total volumes of 50-100 μl of iohexol, iopamidol, or normal saline (NS) were infused at 10-20 μl per min for 5 min using a P33 perfusion pump (Harvard Apparatus, Holliston, Mass.). Upon completion of the infusion, the bull dog clamps were released. The exterior abdominal wound was closed using 7 mm wound clips, and a single injection of buprenorphine (0.075 mg/kg) was given immediately after the surgery. Mice recovered on a heating pad for 30 min after the procedure. They were given free access to food and water after the surgery. Pancreas tissue preparation, histological grading, and serum amylase. The pancreas, duodenum, and spleen were fixed at room temperature for 24 hr in 4% paraformaldehyde. Paraffin-embedded sections were stained with hematoxylin an eosin (HE) and graded using a 20× objective over 10 separate fields in a blinded fashion. Pancreas tissue was graded for edema, inflammatory infiltrate, and necrosis as described by Wildi et al.^67. Whole blood samples were centrifuged at 1500×g for 5 min at 4° C. Serum amylase was measured using a Phadebas kit (Amersham Pharmacia, Rochester N.Y.) as previously described^68.
# [4] = test system: mouse pancreatic acinar cells; assay: Ca^2+ signals (Fluo-4AM) in mouse pancreatic acinar cells; assay type: cell-based; details: RC 25% and 33%
# Description: Detection and analysis of cellular Ca^2+ signals from mouse and human acini. Acinar cells were loaded at room temperature with the high-affinity Ca^2+-sensing dye Fluo-4AM (Kd=300 nM; Invitrogen). Acinar cells were plated on acid-washed glass coverslips and then mounted on a perifusion chamber. Thereupon, they were stimulated at room temperature with varying concentrations of RC (17-50%) diluted in HEPES buffer. Carbachol (1 mM) was given at the end of each experiment to confirm that the cells were intact and could mobilize intracellular Ca^2+ stores. A Zeiss LSM710 laser scanning confocal microscope was used with a 20×, 1.4 numerical aperture objective. The dye was excited at 488 nm wavelength, and emission signals of >515 nm were collected every 2 sec. Fluorescence from individual acinar cells was recorded. Analysis of recordings was performed using ImageJ software (NIH, Bethesda, Md.), and mean fluorescence over time in each region was graphed.
# Preparation of mouse pancreatic acini for Ca^2+ imaging. Groups of pancreatic acinar cells were isolated as previously described^26,69, with minor modifications. […]
# pancreatic acinar cells = assay: ATP level measurements in pancreatic acinar cells; assay type: cell-based, mouse; details: RC, concentration dependent
# Description: ATP level measurements. Following isolation, pancreatic acinar cells were cultured in DMEM/F12 Medium (0.5 ml/well of a 48-well plate) at 37° C. water bath and treated with RC±FK506. Cells were collected at indicated time points and lysed in 100 μl lysis buffer (100 mM Tris pH 7.75, 4 mM EDTA). ATP levels were measured from 20 μl aliquots of acinar cell lysates using the ENLITEN luciferase/luciferin reagent (Promega catalog no. FF2021).
# pancreatic NF-κB = assay: Imaging pancreatic NF-κB bioluminescence in vivo (AAV6-NF-κB-luciferase); design: species or system mouse; details: RC-infused mice, 4 hr after surgery
# Description: Imaging pancreatic NF-κB bioluminescence in vivo. An AAV6-NF-κB-luciferase reporter was constructed, expanded in HEK293 cells, and purified as previously described^18-20,39. A volume of 100 μl of virus (10^12 GCP/ml) was infused into the pancreaticobiliary duct at a rate of 10 μl/min using the same technique of RC infusion described above and recently published^21,39. After a 5-week recovery from the surgery, mice underwent PEP induction with or without FK506 treatment. At varying time points after the surgery, ranging from 2 to 36 hr, bioluminescence signals were obtained by first giving a subcutaneous injection of luciferin (150 μg/g body weight) in the scruff of the neck 15 min before the start of imaging. The mice were briefly anesthetized with isoflurane and placed in the supine position in a bioluminescent imaging chamber (IVIS spectrum imager; Perkin Elmer, Waltham, Mass.) for 3-10 min. Average pixel intensity was measured from a pancreatic region of interest (in the upper abdomen). Raw time points from each mouse were normalized to its individual baseline intensity at time zero.
# [5] = test system: IL-6, GADD45B, IL-1β gene expression; assay: Real-time PCR of pancreatic head (IL-6, GADD45B, IL-1β); assay type: in vivo, mouse; details: RC exposure
# Description: RNA extraction from whole pancreas and real-time PCR. Total RNA from the pancreatic head was obtained by homogenizing 40 mg of tissue in 2 ml of TRIzol reagent (Life Technologies; Grand Island N.Y.) at 4° C. and immediately flash frozen in liquid nitrogen. Samples were thawed on ice and centrifuged at 12,000×g for 10 min at 4° C. The supernatant was diluted with 200 μl of chloroform and centrifuged at 12,000×g for 15 min at 4° C. The upper aqueous phase was treated with 0.5 ml of isopropanol and centrifuged at 10,000×g for 10 min at 4° C. The pellet was resuspended with 150 μl of 75% ethanol and centrifuged at 7500×g for 5 min at 4° C. The pellet was air-dried and dissolved in 100 μl of nuclease-free water. Total RNA samples were used to generate cDNA using the iScript Advanced cDNA synthesis Kit (Bio Rad; Hercules, Calif.).
# Quantitative real-time PCR (rtPCR) was performed to determine the relative expression of the cytokines IL-6 and IL-1β as well as the cell growth arrest and DNA-damage inducible gene GADD45B. The primer pairs for each as well as a GAPDH control were obtained as part of the PrimePCR-PreAMP SYBR Green Assay (Bio Rad; unique assay ID #qMmuCEP0054186, qMmuCID0005641, qMmuCEP0039581). rtPCR reactions were carried out in 20 μl volume reactions using the SsoAdvanced Universal Supermix SYBR Green system (Bio Rad). The reactions contained 1× SsoAdvanced Universal SYBR Green Supermix, 300 nM forward Primer, 300 nM reverse primer and 100 ng cDNA. rtPCR conditions were 95° C. for 10 sec and 60° C. for 30 sec for 35 cycles on a Bio Rad CFX96 Touch thermocycler (Bio Rad). Results for the expression of mRNA were normalized to expression of 18S rRNA and are represented relative to expression levels for each of the control groups.
# NRK-52E renal cell line = details: long incubation (4 hr); cited from earlier work
smiles,measurement,setting,value
NCCOB(c1ccccc1)c1ccccc1 [2-APB],effect on RC (25%)-induced Ca^2+ signals,AR42J cells,prevented
same,reduction of RC-induced NFAT-luciferase rise,[1],47%
same,effect on RC (6%)-induced NFAT-luciferase activity,[2],prevented
same,effect on RC-induced NF-κB-luciferase levels,NF-κB,reduced
same,effect on RC (12%)-induced acinar cell injury (PI uptake),primary acinar cells,prevented
CC(=O)OCOC(=O)CN(CC(=O)OCOC(C)=O)c1ccc(C)cc1OCCOc1cc(-c2c3cc(F)c(=O)cc-3oc3cc(OCOC(C)=O)c(F)cc23)ccc1N(CC(=O)OCOC(C)=O)CC(=O)OCOC(C)=O [Fluo-4AM],Kd,[3],0.3 µM
CCCCCCCCCCC[C@@H](C[C@@H]1OC(=O)[C@H]1CCCCCC)OC(=O)[C@H](CC(C)C)NC=O [Orlistat],effect on activation of NF-κB with RC,"NF-κB; Orlistat pretreatment (50-100 μM), RC 16%",did not significantly reduce
"CC(=O)N(CC(O)CO)c1c(I)c(C(=O)NCC(O)CO)c(I)c(C(=O)NCC(O)CO)c1I (centres unmarked) [RC, iohexol]",severity of pancreatitis at pH 6 compared to pH 7,"pancreas; RC buffered with 10 mM HEPES, pH clamped at 6",no increased severity of pancreatitis
same,increase in histological severity above the intra-ductal NS sham control,"pancreas; intraductal RC at doubled rate and volume, pancreatic head 24 hr after procedure",59%
same,serum amylase increase,"pancreas; intraductal RC, 6 hr post-procedure",at least 50%
same,amplitude of Ca^2+ signal above baseline,[4],400%
same,propidium iodide (PI) uptake,primary acinar cells; RC exposure for 6 hr,concentration-dependent increase
same,ATP levels,pancreatic acinar cells,depletion of ATP levels
same,peak in pancreatic NF-κB luciferase compared to NS sham,pancreatic NF-κB,13 fold
same,expression of GADD45B,[5],upregulated
same,expression of IL-1β,[5],upregulated
same,expression of IL-6,[5],upregulated
COc1ccc2c(c1)CC[C@@H]1[C@@H]2CC[C@]2(C)[C@@H](NCCCCCCN3C(=O)C=CC3=O)CC[C@@H]12 [U73122],effect on RC (25%)-induced Ca^2+ signals,AR42J cells,prevented
same,effect on RC (6%)-induced NFAT-luciferase activity,[2],prevented
same,effect on RC-induced NF-κB-luciferase levels,NF-κB,reduced
same,effect on RC (12%)-induced acinar cell injury (PI uptake),primary acinar cells,prevented
C[C@H](O)C(=O)Nc1c(I)c(C(=O)NC(CO)CO)c(I)c(C(=O)NC(CO)CO)c1I [iopamidol],"induction of pancreatitis by intraductal infusion (histological severity, serum amylase, serum IL-6)","pancreas; iopamidol (Isovue 300) compared with iohexol, 24 hr",similar; also recorded: induces pancreatitis
same,calcineurin/NFAT activation on exposure to radiocontrast,[2]; AR42J cells,induced NFAT activation in a concentration-dependent manner
same,NF-κB-luciferase on exposure to radiocontrast,"NF-κB; AR42J cells, 6 hr",induced NF-κB activation in a concentration-dependent manner
O=C(NCC(O)CO)c1c(I)c(C(=O)NCC(O)CO)c(I)c(N(CCO)C(=O)CO)c1I (centres unmarked) [ioversol],baseline cytosolic Ca^2+ levels,NRK-52E renal cell line,"caused a slow, globalized increase in baseline cytosolic Ca^2+ levels"
OC[C@@H](O)[C@@H](O)[C@H](O)[C@H](O)CO [mannitol],NF-κB activation under hyperosmolar control,NF-κB; mannitol at concentrations equimolar to RC,failed to cause an increase
